How the values were obtained:
[1] = Plasma pharmacokinetics in rats after intravenous administration; settings: for AUC(0-t) / C0 / half-life: male, Sprague Dawley, rat, plasma, iv, 1 mg/kg
[2] = Metabolic stability in human liver microsomes (HLM); set-up: microsomal CLint / half-life: dose or concentration left out as unconfirmed; settings: for half-life / microsomal CLint: both, human, pooled human liver microsomes, pH 7.4
[3] = Stability in mouse brain homogenate; assay type: in vitro ADME, male CD-1 mice; settings: mouse brain homogenate, 1 μM, 37° C.; for half-life at 1 µM: male, CD-1
[4] = target: T1, 5-HT2C receptor (Homo sapiens, UniProt P28335); test: cell-based; assay type: cell-based; settings: Ca2+ flux
T1 sequence (P28335 33-458): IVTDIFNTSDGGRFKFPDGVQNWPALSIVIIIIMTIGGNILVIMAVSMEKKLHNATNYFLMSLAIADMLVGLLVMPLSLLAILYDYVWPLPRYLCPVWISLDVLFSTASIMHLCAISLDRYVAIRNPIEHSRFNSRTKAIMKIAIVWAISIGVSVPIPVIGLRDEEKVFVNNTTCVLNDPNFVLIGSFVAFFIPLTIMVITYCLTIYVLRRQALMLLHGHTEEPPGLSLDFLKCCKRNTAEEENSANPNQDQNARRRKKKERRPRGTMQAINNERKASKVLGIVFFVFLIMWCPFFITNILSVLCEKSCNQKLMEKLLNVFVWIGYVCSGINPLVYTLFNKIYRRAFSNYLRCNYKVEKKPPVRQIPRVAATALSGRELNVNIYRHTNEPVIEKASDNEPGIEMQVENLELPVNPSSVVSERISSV

[5] = target: T2, 5-HT1A (Homo sapiens, UniProt P08908); test: FLIPR Ca2+ flux agonist assay at 5-HT1A; assay type: cell-based; settings: for 5-HT1A % Act @ Max Dose: Ca2+ flux, CHO cells
T2 construct: host or cells: CHO cells
T2 sequence (P08908 1-422): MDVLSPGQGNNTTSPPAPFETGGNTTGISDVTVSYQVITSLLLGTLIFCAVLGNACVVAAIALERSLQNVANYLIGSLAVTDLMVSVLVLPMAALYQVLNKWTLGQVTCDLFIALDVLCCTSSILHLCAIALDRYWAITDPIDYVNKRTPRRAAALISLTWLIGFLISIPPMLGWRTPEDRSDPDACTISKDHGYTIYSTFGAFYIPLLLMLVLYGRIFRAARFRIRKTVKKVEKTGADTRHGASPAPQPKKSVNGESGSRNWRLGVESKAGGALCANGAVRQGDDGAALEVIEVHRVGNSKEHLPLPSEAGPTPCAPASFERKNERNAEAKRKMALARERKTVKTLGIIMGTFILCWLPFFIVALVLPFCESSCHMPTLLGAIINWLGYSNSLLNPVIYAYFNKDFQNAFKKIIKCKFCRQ

[6] = tested on: rat synaptosomes; test: Serotonin (5-HT) release from rat synaptosomes; assay type: biochemical, Male Sprague-Dawley rats; settings: for EC50: rat synaptosomes preloaded with [3H]5-HT; for % Release @ Max Dose (10 μM) / 5-HT release potency/efficacy compared with analog (in words): rat synaptosomes
Method: Disclosed compounds were assessed for their ability to release serotonin (5-HT) from […] (Table 9). Potency and efficacy for 5-HT release varied substantially depending on the specific compound. […] However, there was also substantial variability among 4-hydroxy compounds.
Synaptosome 5-HT Release Assay. Synaptosome release assays were conducted according to modifications of previously described procedures (Partilla et al. (2016). Interrogating the Activity of Ligands at Monoamine Transporters in Rat Brain Synaptosomes. In Neurotransmitter Transporters (pp. 41-52). Springer.). Briefly, synaptosomes were prepared from rat brains. Male Sprague-Dawley rats were rendered unconscious with CO2 and their brains were immediately removed. The cerebella were discarded and the whole brains (minus striatum) were placed in ice-cold 0.32 M sucrose (10 mL per brain) and gently homogenized by hand. The homogenate of each brain was centrifuged at 1,000×g at 4° C. for 10 mins and the resulting supernatant was diluted with ice-cold 0.32 M sucrose to a total volume of 10 mL to provide the synaptosome solution. Synaptosomes were then preloaded with 5 nM [^3H]5-HT in the presence of selective uptake inhibitors of DAT (50 nM GBR12935), NET (100 nM nomifensine), and VMAT2 (1 μM reserpine) in Krebs phosphate buffer (KPB). The incubations were allowed to reach equilibrium for 2 h at 25° C. For the release reactions, 425 μL of preloaded synaptosomes were added to test tubes containing 75 μL of test drugs diluted in KPB containing 1 mg/mL BSA. After 10 mins, the release reaction was stopped using a cell harvester by rapid vacuum filtration over GF/B filter paper presoaked in wash buffer (10 mM Tris-HCl, pH 7.4, 150 mM NaCl) and the filters were washed with additional wash buffer. Filters were dried for 1 h at 60° C. and retained radioactivity was quantified using a MicroBeta 2 liquid scintillation counter. The amount of retained radioactivity was inversely proportional to the extent of release.

[7] = target: 5-HT2A (Homo sapiens, UniProt P28223); test: FLIPR Ca2+ flux agonist assay at 5-HT2A; assay type: cell-based; set-up: host or cells: HEK293; settings: for 5-HT2A % Act @ Max Dose: Ca2+ flux, HEK293, max dose
Chain of 5-HT2A (P28223 whole entry): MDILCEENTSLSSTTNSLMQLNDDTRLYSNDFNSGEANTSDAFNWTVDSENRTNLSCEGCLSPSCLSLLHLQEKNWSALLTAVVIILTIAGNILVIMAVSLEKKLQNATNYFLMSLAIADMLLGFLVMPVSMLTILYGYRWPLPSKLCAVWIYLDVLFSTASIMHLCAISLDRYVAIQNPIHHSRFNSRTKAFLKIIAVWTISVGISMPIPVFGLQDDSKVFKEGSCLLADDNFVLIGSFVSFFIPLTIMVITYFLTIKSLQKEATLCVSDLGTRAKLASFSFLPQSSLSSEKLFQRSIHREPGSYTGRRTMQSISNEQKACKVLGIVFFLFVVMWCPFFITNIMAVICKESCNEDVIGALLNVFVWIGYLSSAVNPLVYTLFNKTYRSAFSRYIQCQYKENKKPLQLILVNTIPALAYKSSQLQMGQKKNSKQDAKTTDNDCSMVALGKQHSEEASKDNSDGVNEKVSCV

SMILES | AUC(0-t) [1] [ng·h/mL] | C0 [1] [ng/mL] | half-life [1] [min] | plasma half-life (in words) ([1]; rats, IV 1 mg/kg) | t1/2 ([2]; HLM 0.50 mg protein/mL, NADPH, 37° C., 60 minutes) [min] | t1/2 [3] [min] | % Compound Remaining (after 120 min) [3] [%] | EC50 [4] [nM] | 5-HT2C % Act @ Max Dose [4] [%] | EC50 [5] [nM] | 5-HT1A % Act @ Max Dose [5] [%] | EC50 [6] [nM] | % Release @ Max Dose (10 μM) [6] [%] | EC50 [7] [nM] | 5-HT2A % Act @ Max Dose [7] [%] | half-life [2] [min] | microsomal CLint [2] [µL/min/mg] | half-life at 1 µM [3] [min] | 5-HT release potency/efficacy compared with analog (in words) [6]
CN(C)CCc1c[nH]c2ccc(F)cc12 [Compound 5-F-DMT, reference compound] | 35.5 | 338 | 4.8 | very short half-lives | 4.6 | 3.1 | 0.0 | 4.94 | 93.9 | 5720 | 72.9 | 40.7 | 81.44 | 6.94 | 94.7 |  |  |  | 
CCNCCc1c[nH]c2ccc(F)c(O)c12 [Compound 28, 3-(2-(ethylamino)ethyl)-5-fluoro-1H-indol-4-ol] | 86.7 | 249 | 27.6 |  |  |  | 1.9 | 69.7 | 99.03 | 9210 | 60.29 | 708 | 73.6 | 10.5 | 92.60 | 42.3 | 32.8 | 22.1 | significantly more potent and efficacious than their non-fluorinated analogs
CC(C)NCCc1c[nH]c2ccc(F)c(O)c12 [Compound 35, 5-fluoro-3-(2-(isopropylamino)ethyl)-1H-indol-4-ol] | 126 | 348 | 26.4 |  |  |  | 40 | 324 | 74.81 | 93800 | 48.74 | 6940 | 53.2 | 45.7 | 94.57 | 45.7 | 30.3 | 90.5 | significantly more potent and efficacious than their non-fluorinated analogs

From US20260234107A1, “TRYPTAMINES AND METHODS OF TREATING MOOD DISORDERS” (priority 2022, published 2026)
